Laboratory results from PubChem BioAssay (NCI).
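Grown in 96-well plates, cells were treated for 48 hours with each compound at five concentrations. Insufficient inhibition: endpoint recorded as highest concentration tested. GI50 is the concentration that inhibits growth by half. Definition used: TGI = concentration required for complete inhibition of growth.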 *1 amine or outer side, *2 acyl side, *3 side chain or, on linkers, in order; H or OH if unused. Where a SMILES comes first, the peptide text is derived from it. [ ]: non-standard residue; d: D form. ξ: configuration not given here. X21 = CC[C@@H](C)C(N[*:1])C(=O)[*:2]; ξR = N=C(N)NCCCC(N)C(=O)O; ξI = CCC(C)C(N)C(=O)O; ξL = CC(C)CC(N)C(=O)O; ξK = NCCCCC(N)C(=O)O; ξV = CC(C)C(N)C(=O)O; ξA = CC(N)C(=O)O

What follows are compounds tested on MDA-MB-468 breast (assay: NCI-60 cell line screen, 48 h).

Row | Structure (SMILES) | GI50 | TGI
1 | NC1CCC(N[C@@H]2C[C@H]2c2ccccc2)CC1 (some centres undefined) | > 100000 nM | > 100000 nM
2 | CN1CCN(c2ccc(C(=O)Nc3cc(-c4cccc(NS(=O)(=O)c5ccccc5)c4)[nH]n3)cc2)CC1 | 4840 nM | 14000 nM
3 | Nc1ncnc2c1cnn2Cc1ccc(Cl)cc1 | 44700 nM | > 100000 nM
4 | COc1ccccc1/C=C/C(=O)/C=C/c1ccccc1OC | 1270 nM | 2670 nM
5 | NC1=Nc2cc(OCCCN3Cc4ccccc4C3)c(OCC3CC3)cc2C12CCCC2 | 1040 nM | 2480 nM
6 | OCc1ccc(N(CCN2CCCC2)Cc2ccc(F)cc2)cc1Cl | 1200 nM | 3280 nM
7 | CC(C)Nc1ncc2cc(Oc3ccc(F)cc3F)c(=O)n(C)c2n1 | > 23000 nM | > 25000 nM
8 | CCCN(CCSSCCNc1nc(N(C)O)nc(N(C)O)n1)c1nc(N(C)O)nc(N(C)O)n1 | 2150 nM | 8860 nM
9 | O=C(Nc1ccccc1)Nc1cccc(Oc2nnc(Cl)c3ccccc23)c1 | 1680 nM | 7580 nM
10 | C=C1C(=O)O[C@H]2[C@H]1CC/C(COC(=O)c1ccccc1)=C\CC[C@@]1(C)O[C@@H]21 | 464 nM | 2590 nM
11 | Cn1c(=O)c(Oc2ccccc2)cc2cnc(NC3CCOCC3)nc21 | > 25000 nM | > 25000 nM
12 | C=C1C(=O)O[C@H]2[C@H]1CC/C(Cn1cc(-c3cc(C)c(C)cc3C)nn1)=C\CC[C@@]1(C)O[C@@H]21 | 530 nM | 2060 nM
13 | COc1ccc2c(c1)/C(=C/c1cc(OC)c(OC)c(OC)c1)C(=O)N2C | 14600 nM | > 100000 nM
14 | CCNCCCn1c2c(c3ccc([N+](=O)[O-])cc3c1=O)C(=O)c1cc(OC)cnc1-2 | 41.6 nM | 210 nM
15 | C#C[C@]1(O)CC[C@H]2[C@@H]3CC=C4c5sc(N6CCN(C)CC6)nc5CC[C@]4(C)[C@H]3CC[C@@]21C | 2260 nM | 7600 nM
16 | C[C@H](N)C(=O)N1C[C@H](CCCB(O)O)[C@](N)(C(=O)O)C1 | > 100000 nM | > 100000 nM
17 | N#C/C(=C\c1ccc(Br)cc1)n1nnc2ccccc21 | 566 nM | 2220 nM
18 | Cc1[nH]nc2c1N=C(c1ccccc1Cl)c1cc([N+](=O)[O-])ccc1N2 | 242 nM | > 16800 nM
19 | Cc1cn(-c2cc(NC(=O)c3cncc(C#Cc4cnc5ccc(O[C@@H]6CCOC6)nn45)c3)cc(C(F)(F)F)c2)cn1 | 99.8 nM | 432 nM

Row | Structure (SMILES) | GI50 | TGI
20 | C=C1C[C@@]2(C)C(CC[C@]3(C)C2CC=C2C4CC(C)(C)C[C@@H](OC(=O)/C(C)=C\C)[C@]4(C(=O)O)CC[C@]23C)C(C)(C)C1=O (some centres undefined) | 2020 nM | 5910 nM
21 | Oc1ccc(C#CCOc2ccccc2)cc1CNCCN(Cc1ccccn1)Cc1ccccn1 | 1730 nM | 4170 nM
22 | CCSc1nnc(-c2ccc3ccccc3c2O)n1-c1ccc(Cl)cc1 | 3590 nM | > 100000 nM
23 | O=C(COc1cccc(/C=C2\CSc3ccccc3C2=O)c1)c1ccc(Cl)cc1 | 1500 nM | 3450 nM
24 | COc1ccc(-c2csc(NC(=O)c3cc(O)c(O)c(O)c3)n2)cc1 | 6940 nM | 29500 nM
25 | O=C(Nc1cccc(-n2cc(-c3ccncc3)c(-c3ccc(O)c(Cl)c3)n2)c1)Nc1cccc(C(F)(F)F)c1 | 1850 nM | 6170 nM
26 | COc1ccc2c(c1)C1(C(=O)N2)C(C#N)=C(c2ccccc2)Nc2c1c(-c1ccccc1)nn2-c1ccccc1 (centres undefined) | 2930 nM | 9050 nM
27 | CN(C)CCCn1c2nc(=O)[nH]c(=O)c-2nc2cc(Cl)c(Cl)cc21 | 772 nM | 2130 nM
28 | CCOC(=O)Nc1nc2c(C)cccc2s1 | 28700 nM | > 100000 nM
29 | Nc1ccccc1NC(=O)c1ccc(NC(=O)C/C=C/c2cccnc2)cn1 | 982 nM | 13300 nM
30 | Cc1cc2cn3c4cccnc4[nH]c(=O)c3c2cc1C | 1390 nM | 2830 nM
31 | COc1cc(OC)c(C(=O)/C=C/c2cccc(OC(C)=O)c2)cc1CC=C(C)C | 1890 nM | 9720 nM
32 | CCC(C)C1NC(=O)C(CC(C)C)NC(=O)C(C)NC(=O)C(C(C)C)NC(=O)C(CCCCN)NC(=O)C(CC(C)C)NC(=O)C(C(C)C)NC(=O)[C@H](C)NC(=O)C(C(C)CC)NC(=O)C(CCCN=C(N)N)NC(=O)C(CCCCN)NC(=O)C(CCCN=C(N)N)NC(=O)C(CCCCN)NC(=O)C([C@H](C)CC)NC(=O)C(CCCCN)NC1=O (some centres undefined) (cyclo(A[ξV][ξL][ξK][ξV][ξA][ξL][ξI][ξK][X21][ξK][ξR][ξK][ξR][ξI])) | 361 nM | 1420 nM
33 | NC(=O)c1ccc2nc3c(n2c1)C(=O)C(=O)c1ccccc1-3 | 587 nM | 1920 nM
34 | CCOC(=O)c1cc(C(=O)c2cc(OC)c(OC)c(OC)c2)n2ccccc12 | 93.9 nM | 89600 nM
35 | Cc1ccc(Sc2sc(-c3ccccc3)nc2[P+](c2ccccc2)(c2ccccc2)c2ccccc2)cc1 | 222 nM | 674 nM
36 | Clc1ccc(Nc2ccnc(NCCCNc3ccnc4cc(Cl)ccc34)n2)cc1 | 1490 nM | 3050 nM
37 | CNCCCNCCCN1C(=O)c2ccc3c4c(ccc(c24)C1=O)C(=O)N(CCCNCc1ccccc1OC)C3=O | 1000 nM | 2770 nM
